This note sets out measurements from ChEMBL document CHEMBL2321868, “The discovery of novel potent trans-3,4-disubstituted pyrrolidine inhibitors of the human aspartic protease renin from in silico three-dimensional (3D) pharmacophore searches” (J Med Chem, 2013).

For experiment [1], the target named is T1, Renin (Homo sapiens, UniProt P00797).
T1 sequence (P00797 whole entry): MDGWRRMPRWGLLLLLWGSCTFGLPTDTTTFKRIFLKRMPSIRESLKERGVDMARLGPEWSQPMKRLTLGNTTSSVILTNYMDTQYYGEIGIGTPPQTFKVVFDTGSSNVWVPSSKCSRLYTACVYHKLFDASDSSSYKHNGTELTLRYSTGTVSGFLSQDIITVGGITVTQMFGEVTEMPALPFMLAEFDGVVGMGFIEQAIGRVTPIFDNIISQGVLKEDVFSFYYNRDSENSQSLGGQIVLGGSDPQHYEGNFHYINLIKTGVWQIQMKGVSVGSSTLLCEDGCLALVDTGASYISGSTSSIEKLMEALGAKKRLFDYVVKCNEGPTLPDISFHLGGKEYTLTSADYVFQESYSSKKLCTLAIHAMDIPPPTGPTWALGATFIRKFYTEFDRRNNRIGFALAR
Briefly: Inhibition of human recombinant renin expressed in CHO cells using RE(EDANS)IHPFHLVIHTK(Dabcyl)R as substrate incubated for 1 hr prior to substrate addition measured after 2 hrs by FRET-based enzymatic assay.

In experiment [2] the target is T2, Cathepsin E (Homo sapiens, UniProt P14091).
T2 sequence (P14091 whole entry): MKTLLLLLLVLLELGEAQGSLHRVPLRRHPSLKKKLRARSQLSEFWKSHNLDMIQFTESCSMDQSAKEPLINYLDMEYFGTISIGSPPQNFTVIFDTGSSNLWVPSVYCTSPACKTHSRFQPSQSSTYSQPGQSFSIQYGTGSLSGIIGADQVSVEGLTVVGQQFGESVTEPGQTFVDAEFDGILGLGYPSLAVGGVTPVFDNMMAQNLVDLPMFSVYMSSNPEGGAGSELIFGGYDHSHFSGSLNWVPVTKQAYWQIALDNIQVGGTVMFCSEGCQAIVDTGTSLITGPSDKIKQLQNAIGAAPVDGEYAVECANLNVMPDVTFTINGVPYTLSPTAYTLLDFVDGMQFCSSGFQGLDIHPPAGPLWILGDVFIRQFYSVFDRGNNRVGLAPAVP
Kind of experiment: Inhibition of human recombinant cathepsin-E expressed in Escherichia coli using Ac- E-D(EDANS)-KPILFFRLG-K(Dabcyl)-E-Amid as substrate incubated for 1 hr prior to substrate addition measured after 1 hr by FRET-based enzymatic assay.

The nature of experiment [3]: Inhibition of human recombinant pepsin A expressed in Escherichia coli using Dabcyl-E-R-Nle-F-L-S-F-P-EDANS as substrate incubated for 1 hr prior to substrate addition measured after 1 hr by FRET-based enzymatic assay.
Experiment [4] deals with Cathepsin D (Homo sapiens, UniProt P07339). Briefly: Inhibition of human recombinant cathepsin-D expressed in baculovirus-infected insect sf9 cells using Ac- E-D(EDANS)-KPILFFRLG-K(Dabcyl)-E-Amid as substrate incubated for 1 hr prior to substrate addition measured after 1 hr by FRET-based enzymatic assay.
Experiment [5] has as its target T3, Gastricsin (Homo sapiens, UniProt P20142).
T3 sequence (P20142 whole entry): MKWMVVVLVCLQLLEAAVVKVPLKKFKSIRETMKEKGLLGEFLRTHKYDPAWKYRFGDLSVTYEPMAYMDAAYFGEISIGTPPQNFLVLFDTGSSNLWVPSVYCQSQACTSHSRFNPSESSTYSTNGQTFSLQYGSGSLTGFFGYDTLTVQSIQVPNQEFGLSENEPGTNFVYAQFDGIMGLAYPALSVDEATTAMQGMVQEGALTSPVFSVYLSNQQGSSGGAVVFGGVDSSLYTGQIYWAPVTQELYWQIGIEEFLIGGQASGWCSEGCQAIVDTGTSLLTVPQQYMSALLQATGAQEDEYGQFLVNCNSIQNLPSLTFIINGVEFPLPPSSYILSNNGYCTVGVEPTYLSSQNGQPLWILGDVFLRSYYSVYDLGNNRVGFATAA
Kind of experiment: Inhibition of human recombinant pepsin C expressed in Escherichia coli using Dabcyl-E-R-Nle-F-L-S-F-P-EDANS as substrate incubated for 1 hr prior to substrate addition measured after 1 hr by FRET-based enzymatic assay.

The target in experiment [6] is T4, Renin (Homo sapiens) (UniProt P00797).
T4 sequence (whole entry): T1 sequence (P00797 whole entry)
Briefly: Inhibition of human recombinant renin expressed in CHO cells using RE(EDANS)IHPFHLVIHTK(Dabcyl)R as substrate at 10 uM incubated for 1 hr prior to substrate addition measured after 2 hrs by FRET-based enzymatic assay.

SMILES strings stand for the structures.

Cathepsin D, sequence (P07339 65-162 limits assumed): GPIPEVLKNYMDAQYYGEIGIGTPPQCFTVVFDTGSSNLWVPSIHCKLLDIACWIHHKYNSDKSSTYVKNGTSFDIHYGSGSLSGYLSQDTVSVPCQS
Cathepsin D, sequence (P07339 169-412 limits assumed): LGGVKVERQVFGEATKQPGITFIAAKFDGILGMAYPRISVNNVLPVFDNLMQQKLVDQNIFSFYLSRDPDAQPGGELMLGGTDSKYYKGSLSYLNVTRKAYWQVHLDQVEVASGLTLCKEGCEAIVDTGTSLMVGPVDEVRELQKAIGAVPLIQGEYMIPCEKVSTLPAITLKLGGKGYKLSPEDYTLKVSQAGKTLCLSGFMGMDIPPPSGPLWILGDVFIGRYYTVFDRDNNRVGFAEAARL

Regarding `COCCCOc1cc(C(=O)N(CC2CNCC2Cc2ccccc2)C(C)C)ccc1OC` (racemic), the IC50 in experiment [1] came out at 0.45 µM.

Regarding `COCCCOc1cc(C(=O)N(C[C@H]2CNC[C@@H]2Cc2ccccc2)C(C)C)ccc1OC`, in experiment [1], the IC50 came out at 2.7 µM.

For `Clc1ccc(N(C[C@@H]2CNC[C@H]2Cc2ccccc2)c2ccccc2)cc1`, the IC50 in experiment [2] turned out to be 11 µM; in experiment [3], 4.5 µM; in experiment [4] it was 11 µM; in experiment [1] it was 7.6 µM; in experiment [5] it was 29 µM.

Consider `COCCCOc1cc(CN(CC2CNCC2Cc2ccccc2)C(C)C)ccc1OC` (racemic), for which, in experiment [1], the IC50 is 7.7 µM.

Take `COCCCOc1cc(C(=O)N(CC2CNCC2Cc2ccccc2)c2ccccc2)ccc1OC` (racemic): in experiment [1], the half-inhibitory concentration (IC50) was 1.9 µM.

`COCCCOc1cc(CN(CC2CNCC2Cc2ccccc2)c2ccc(Cl)cc2)ccc1OC` (racemic): the IC50 in experiment [1] is 9.8 µM.

`Clc1ccc(N(C[C@H]2CNC[C@@H]2Cc2ccccc2)c2ccccc2)cc1`: in experiment [1], the IC50 came to 18 µM.

Consider `Clc1ccc(N(Cc2ccccc2)CC2CNCC2Cc2ccccc2)cc1` (racemic), for which the concentration for half-maximal inhibition (IC50) in experiment [1] amounted to 4.1 µM.

With `Clc1ccc(N(CC2CNCC2Cc2ccccc2)c2ccccc2)cc1` (racemic), the half-maximal inhibitory concentration (IC50) in experiment [1] came out at 14 µM.

On to `c1ccc([C@H]2CCNC[C@@H]2OCc2ccc3ccccc3c2)cc1`, for which the inhibition in experiment [6] worked out at 34%.

Regarding `COCCCOc1cc(C(=O)N(CC2CNCC2Cc2ccccc2)c2ccc(Cl)cc2)ccc1OC` (racemic), in experiment [1], the IC50 came out at 1.7 µM.
